The nature of data set [1]: in vitro. The following applies: human, liver microsomes.
A short description of data set [2]: in vitro. The following applies: human, liver microsomes. The source holds these as a separate data set. For orientation: Liver microsomes are vesicles of endoplasmic reticulum, rich in cytochrome P450 enzymes.

Broadly, the amount remaining is the share of the starting amount still present when the sample was taken. A lower amount remaining goes with more turnover. `Cc1nc2n(c(=O)c1CCN1CCC(c3noc4cc(F)ccc34)CC1)CCCC2O` (centres undefined) [PALIPERIDONE] showed an amount remaining at 0.5 h, 2 µM in the data set “in vitro [1]” of 100%. The same compound showed an amount remaining at 1 h, 2 µM in “in vitro [2]” of 100%.
In turn, `Cc1nc2n(c(=O)c1CCN1CCC(c3noc4cc(F)ccc34)CC1)CCCC2` [RISPERIDONE] returned a fraction remaining at 0.5 h, 2 µM in the data set “in vitro [1]” of 100%. Also, the fraction remaining at 1 h, 2 µM in the data set “in vitro [2]” was 75%.
